Legend:
[1] = test system: human oral cancer cells OECM-1; test: Colony formation of OECM-1 cells; type: cell-based; settings: 5˜20 μg/ml, 10 days
Experimental: FIGS. 4A-4B show ginsenoside M1 reduced the colony formation ability of human oral cancer cells. Human oral cancer cell line SAS cells (FIG. 4A) or OECM-1 cells (FIG. 4B) were incubated for 10 days with ginsenoside M1 (5˜20 μg/ml) or vehicle (0.1% DMSO). The cells were fixed in 4% ice-cold paraformaldehyde and stained with 0.1% crystal violet, and the colonies were counted. The data were expressed as mean±SD; n=4. * and *** indicate a significant difference at the level of p<0.05 and p<0.001, respectively, compared to vehicle-control cells. (One-way ANOVA with Dunnett's multiple comparisons test).
Plate 150 human oral cancer cells SAS or OECM-1 per 6-cm dish in 3 ml of culture medium and were grown overnight at 37° C. in a 5% CO2 incubator. The cells were incubated for 10 days with ginsenoside M1 (5˜20 μg/ml) or vehicle. The cells were changed for fresh medium containing the same concentration of ginsenoside M1 at day 5. The cells were fixed in 4% ice-cold paraformaldehyde for 15 min at […], and stained with 0.1% crystal violet 10 min at room temperature. […] The data were expressed as mean±SD; n=4. * and *** indicate a significant difference at the level of p<0.05 and p<0.001, respectively, compared to vehicle-control cells. (One-way ANOVA with Dunnett's multiple comparisons test).

[2] = test system: human oral cancer OECM-1 cells; test: Migration of OECM-1 cells, wound healing assay; type: cell-based; settings: 18 h
Experimental: FIGS. 5A-5B show ginsenoside M1 reduced the migration ability of human oral cancer cells. Human oral cancer cell line SAS cells (FIG. 5A) or OECM-1 cells (FIG. 5B) were cultured in 6-cm dish until the cells reached 100% confluence forming a monolayer. A clear zone was created by scratching using a sterile 200-μl pipette tip. The cells were incubated for 24 h (SAS cells) or 18 h (OECM-1 cells) with ginsenoside M1 (5˜10 μg/ml) or (0.1% DMSO). The migration distance was measured and compared to the vehicle-control cells. The data were expressed as mean±SD; n=3. *** indicates a significant difference at the level of p<0.001, compared to vehicle-control cells. (One-way ANOVA with Dunnett's multiple comparisons test).
The cell migration ability was measured by wound healing assay. Plate 5×10^6 human oral cancer SAS cells or OECM-1 cells per 6-cm dish in 2 ml of culture medium and were grown overnight at 37° C. in a 5% CO2 incubator until the cells reached 100% confluence forming a monolayer. We used a sterile 200-μl pipette tip to create a scratched clear zone on the culture dish, and the wounds photographed by a phase contrast microscope as the baseline. […] The data were expressed as mean±SD; n=3. *** indicates a significant difference at the level of p<0.001, compared to vehicle-control cells. […]

[3] = Body weight of SAS xenograft mice; type: in vivo, BALB/c nude (nu/nu) mice; settings: 5 successive days
Experimental: FIGS. 6A-6C show oral administration of ginsenoside M1 reduced human oral cancer growth in mice. Human oral cancer cell line SAS cells Xenografts mice with tumor size around 40˜60 mm^3 were given a daily oral administration of either ginsenoside M1 (30-90 mg/kg) or vehicle for 5 successive days. (FIG. 6A) The tumor volume was determined by measurement of the length (L) and width (W) of the tumor and calculated as tumor volume (mm3)=(L×W^2)/2. (FIG. 6B) The tumor weight was measured after the mice were scarified. (FIG. 6C) The body weight of mice was recorded. The data were expressed as mean±SD; n=6. ** and *** indicate a significant difference at the level of p<0.01 and p<0.001, respectively, compared to vehicle-control mice. […]
FIGS. 7A-7C show subcutaneous (SC) injection of ginsenoside M1 reduced human oral cancer growth in mice. […] (FIG. 7A) The tumor volume was determined by measurement of the length (L) and width (W) of the tumor and calculated as tumor volume (mm3)=(L×W^2)/2. (FIG. 7B) The tumor weight was measured after the mice were scarified. (FIG. 7C) The body weight of mice was recorded. The data were expressed as mean±SD; n=6. ** indicates a significant difference at the level of p<0.01, compared to vehicle-control mice. […]
To evaluate the anti-cancer activity of ginsenoside M1 in vivo, human oral cancer xenografts were used. […] The TV on day n (TVn) was calculated as TV (mm3)=(L×W^2)/2. […]

CC(C)=CCC[C@](C)(O[C@@H]1OC(CO)[C@@H](O)[C@@H](O)C1O)[C@H]1CC[C@]2(C)C1[C@H](O)CC1[C@@]3(C)CC[C@H](O)C(C)(C)C3CC[C@]12C (stereo partly drawn) [ginsenoside M1, 20-O-β-D-glucopyranosyl-20(S)-protopanaxadiol]
colony formation ability of OECM-1 cells [1]: dose-dependently inhibited
migration ability of OECM-1 cells ([2]; 5 μg/ml): significantly inhibited
migration ability of OECM-1 cells ([2]; 10 μg/ml): significantly inhibited
body weight of mice ([3]; SC injection 20 mg/kg daily): did not significantly affect
body weight of mice ([3]; oral 30-90 mg/kg daily): did not significantly affect

From patent US11524021B2, “Use of ginsenoside M1 for manufacturing medicament for treating oral cancer” (priority 2018, dated 2022)
